# Assays:
# Format in all cases: cell-based
# M3 muscarinic receptor = biological target: T1, M3 muscarinic receptor (Homo sapiens, UniProt P20309); experiment: Functional mobilization of intracellular calcium (FLIPR), M3-CHO cells; settings: for Emax: 100% efficacy = maximum response obtained with the Carbachol control; for M3 Activity: M3-CHO cells, calcium mobilization (FLIPR)
# T1 construct: expressed in transfected cells; host or cells: CHO (M3-CHO)
# Outline: (§1)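 CHO cells expressing human M1–M4 receptors loaded with Fluo-3 AM or Calcium 3 dye (1 mM probenecid, pH 7.4); 0.5% DMSO final. Agonist mode: compound added directly; antagonist mode: 15 min pre-incubation or co-application, then carbachol at EC80. Fluorescence read 60 s on FLIPR; efficacy relative to carbachol maximum.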
# M1 muscarinic receptor = biological target: T2, M1 muscarinic receptor (Homo sapiens, UniProt P11229); experiment: Functional mobilization of intracellular calcium (FLIPR), M1-CHO cells; settings: for Emax: 100% efficacy = maximum response obtained with the Carbachol control; for M1 Activity: M1-CHO cells, calcium mobilization (FLIPR)
# T2 construct: expressed in transfected cells; host or cells: CHO (M1-CHO)
# T2 sequence (P11229 1-460): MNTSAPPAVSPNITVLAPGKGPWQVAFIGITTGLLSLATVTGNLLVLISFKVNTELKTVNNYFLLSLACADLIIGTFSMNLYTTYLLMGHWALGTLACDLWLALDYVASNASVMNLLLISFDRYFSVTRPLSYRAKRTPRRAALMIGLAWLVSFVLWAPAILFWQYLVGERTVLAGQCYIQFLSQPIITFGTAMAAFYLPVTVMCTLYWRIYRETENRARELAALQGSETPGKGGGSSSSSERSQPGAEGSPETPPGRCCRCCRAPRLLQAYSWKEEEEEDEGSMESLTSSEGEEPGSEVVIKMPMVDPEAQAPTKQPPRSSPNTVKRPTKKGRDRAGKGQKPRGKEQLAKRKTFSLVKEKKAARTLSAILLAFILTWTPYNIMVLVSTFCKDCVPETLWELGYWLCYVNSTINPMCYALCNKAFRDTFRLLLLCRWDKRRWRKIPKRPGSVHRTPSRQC
# Outline: as §1
# M2 muscarinic receptor = biological target: T3, M2 muscarinic receptor (Homo sapiens, UniProt P08172); experiment: Functional mobilization of intracellular calcium (FLIPR), M2-CHO cells; settings: for Emax: 100% efficacy = maximum response obtained with the Carbachol control; for M2 Activity: M2-CHO cells, calcium mobilization (FLIPR)
# T3 construct: expressed in transfected cells; host or cells: CHO (M2-CHO)
# T3 sequence (P08172 1-466): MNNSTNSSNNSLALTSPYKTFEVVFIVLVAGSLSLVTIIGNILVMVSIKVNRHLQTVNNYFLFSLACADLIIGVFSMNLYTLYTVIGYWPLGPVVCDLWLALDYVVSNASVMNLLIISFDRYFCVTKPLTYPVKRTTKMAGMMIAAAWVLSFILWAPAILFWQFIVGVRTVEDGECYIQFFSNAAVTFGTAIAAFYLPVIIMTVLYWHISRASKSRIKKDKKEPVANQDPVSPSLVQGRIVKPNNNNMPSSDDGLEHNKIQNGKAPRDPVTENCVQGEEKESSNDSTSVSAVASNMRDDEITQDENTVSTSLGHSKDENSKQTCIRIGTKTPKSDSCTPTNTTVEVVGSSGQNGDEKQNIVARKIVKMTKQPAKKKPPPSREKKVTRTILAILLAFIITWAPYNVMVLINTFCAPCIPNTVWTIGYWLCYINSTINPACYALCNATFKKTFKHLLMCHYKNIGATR
# Outline: as §1
# M4 muscarinic receptor = biological target: T4, M4 muscarinic receptor (Homo sapiens, UniProt P08173); experiment: Functional mobilization of intracellular calcium (FLIPR), M4-CHO cells; settings: for Emax: 100% efficacy = maximum response obtained with the Carbachol control; for M4 Activity: M4-CHO cells, calcium mobilization (FLIPR)
# T4 construct: expressed in transfected cells; host or cells: CHO (M4-CHO)
# T4 sequence (P08173 1-479): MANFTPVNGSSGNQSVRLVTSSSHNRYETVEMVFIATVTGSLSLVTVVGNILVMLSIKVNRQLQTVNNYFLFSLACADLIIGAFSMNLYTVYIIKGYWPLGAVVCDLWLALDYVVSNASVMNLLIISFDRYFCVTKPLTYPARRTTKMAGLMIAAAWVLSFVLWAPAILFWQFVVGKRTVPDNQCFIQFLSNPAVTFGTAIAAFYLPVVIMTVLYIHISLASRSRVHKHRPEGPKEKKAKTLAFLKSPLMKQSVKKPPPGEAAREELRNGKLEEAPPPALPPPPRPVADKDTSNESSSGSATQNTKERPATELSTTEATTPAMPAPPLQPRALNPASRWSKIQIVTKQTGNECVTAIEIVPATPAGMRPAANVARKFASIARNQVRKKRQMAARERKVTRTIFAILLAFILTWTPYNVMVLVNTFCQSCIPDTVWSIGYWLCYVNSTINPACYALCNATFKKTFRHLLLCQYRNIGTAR
# Outline: as §1
# T1 sequence (P20309 whole entry): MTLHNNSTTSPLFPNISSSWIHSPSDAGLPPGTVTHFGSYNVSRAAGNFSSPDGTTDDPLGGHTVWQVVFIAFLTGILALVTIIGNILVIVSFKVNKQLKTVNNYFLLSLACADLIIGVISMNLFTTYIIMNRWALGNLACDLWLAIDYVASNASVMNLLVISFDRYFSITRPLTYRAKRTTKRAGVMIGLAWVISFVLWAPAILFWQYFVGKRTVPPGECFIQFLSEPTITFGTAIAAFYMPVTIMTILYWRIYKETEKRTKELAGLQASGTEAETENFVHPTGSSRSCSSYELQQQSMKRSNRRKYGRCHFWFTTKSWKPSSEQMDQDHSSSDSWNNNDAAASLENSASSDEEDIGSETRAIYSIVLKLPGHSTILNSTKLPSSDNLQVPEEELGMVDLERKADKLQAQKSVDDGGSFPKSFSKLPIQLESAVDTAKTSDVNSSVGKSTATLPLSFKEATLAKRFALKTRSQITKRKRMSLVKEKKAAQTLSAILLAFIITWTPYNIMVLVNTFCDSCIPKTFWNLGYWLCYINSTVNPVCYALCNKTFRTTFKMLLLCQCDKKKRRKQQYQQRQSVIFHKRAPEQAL
Structure (SMILES),Emax (M3 muscarinic receptor) [%],M3 Activity (M3 muscarinic receptor),Emax (M1 muscarinic receptor) [%],M1 Activity (M1 muscarinic receptor),Emax (M2 muscarinic receptor) [%],M2 Activity (M2 muscarinic receptor),Emax (M4 muscarinic receptor) [%],M4 Activity (M4 muscarinic receptor)
COc1ccc(-c2cccc(C(N)=O)c2)cc1C1CCN([C@@H]2C[C@H]3CC[C@H]2C3)CC1 [Compound 144],< 25,+ (activity was measured to be greater than 5.0 μM),< 25,+ (activity was measured to be greater than 5.0 μM),< 25,+ (activity was measured to be greater than 5.0 μM),< 25,+ (activity was measured to be greater than 5.0 μM)
CCOC(=O)N1CCC(CN2CCC(c3cc(-c4ccc(S(C)(=O)=O)cc4)ccc3OC)CC2)CC1 [Compound 146],< 25,+ (activity was measured to be greater than 5.0 μM),25 to 100,+++ (activity was measured to be less than 1.0 μM),< 25,+ (activity was measured to be greater than 5.0 μM),25 to 100,+++ (activity was measured to be less than 1.0 μM)
c1ccc(C2CCN([C@H]3C[C@H]4CC[C@H]3C4)CC2)c(OCC2CCCCO2)c1 (stereo partly drawn) [Compound 147],< 25,+ (activity was measured to be greater than 5.0 μM),25 to 100,++ (activity was measured to be from 1.0 μM to 5.0 μM),25 to 100,++ (activity was measured to be from 1.0 μM to 5.0 μM),25 to 100,+++ (activity was measured to be less than 1.0 μM)
COc1ccc(-c2cccnc2)cc1C1CCN([C@H]2C[C@H]3CC[C@H]2C3)CC1 [Compound 148],< 25,+ (activity was measured to be greater than 5.0 μM),< 25,+ (activity was measured to be greater than 5.0 μM),< 25,+ (activity was measured to be greater than 5.0 μM),< 25,+ (activity was measured to be greater than 5.0 μM)
Cc1c(C2CCN(C3C[C@H]4CC[C@H]3C4)CC2)cccc1C(F)(F)F (stereo partly drawn) [Compound 149],< 25,+ (activity was measured to be greater than 5.0 μM),25 to 100,+ (activity was measured to be greater than 5.0 μM),< 25,+ (activity was measured to be greater than 5.0 μM),25 to 100,+ (activity was measured to be greater than 5.0 μM)
COc1ccc(F)cc1C1(OC)CCN(CC2CCOCC2)CC1 [Compound 150],< 25,+ (activity was measured to be greater than 5.0 μM),25 to 100,+ (activity was measured to be greater than 5.0 μM),< 25,+ (activity was measured to be greater than 5.0 μM),25 to 100,+ (activity was measured to be greater than 5.0 μM)
COc1ccccc1C1CCN(C2CCC(C(C)(C)C)CC2)CC1 (stereo not drawn) [Compound 152],< 25,+ (activity was measured to be greater than 5.0 μM),< 25,+ (activity was measured to be greater than 5.0 μM),< 25,+ (activity was measured to be greater than 5.0 μM),< 25,+ (activity was measured to be greater than 5.0 μM)
COc1ccccc1[C@@H]1CCN([C@@H]2C[C@H]3CC[C@H]2C3)C[C@H]1O [Compound 154],< 25,+ (activity was measured to be greater than 5.0 μM),< 25,+ (activity was measured to be greater than 5.0 μM),< 25,+ (activity was measured to be greater than 5.0 μM),25 to 100,+ (activity was measured to be greater than 5.0 μM)
COc1ccccc1C1CCN(C2CCC(C(C)C)CC2)CC1 (stereo not drawn) [Compound 155],< 25,+ (activity was measured to be greater than 5.0 μM),< 25,+ (activity was measured to be greater than 5.0 μM),< 25,+ (activity was measured to be greater than 5.0 μM),< 25,+ (activity was measured to be greater than 5.0 μM)
COc1ccccc1C1CCN(C2CCC(C)CC2)CC1 (stereo not drawn) [Compound 158],< 25,+ (activity was measured to be greater than 5.0 μM),25 to 100,+ (activity was measured to be greater than 5.0 μM),< 25,+ (activity was measured to be greater than 5.0 μM),25 to 100,+++ (activity was measured to be less than 1.0 μM)
COc1ccc(F)cc1C1(OC)CCN(C[C@@H]2C[C@H]3C=C[C@H]2C3)CC1 [Compound 160],< 25,+ (activity was measured to be greater than 5.0 μM),25 to 100,+ (activity was measured to be greater than 5.0 μM),< 25,+ (activity was measured to be greater than 5.0 μM),25 to 100,+++ (activity was measured to be less than 1.0 μM)
COc1ccc(Cl)cc1C1(F)CCN(C2CCCCCC2)CC1 [Compound 161],< 25,+ (activity was measured to be greater than 5.0 μM),25 to 100,+ (activity was measured to be greater than 5.0 μM),25 to 100,+ (activity was measured to be greater than 5.0 μM),25 to 100,+ (activity was measured to be greater than 5.0 μM)
COc1ccc(F)cc1C1CCN(CC2CCOCC2)CC1 [Compound 163],< 25,+ (activity was measured to be greater than 5.0 μM),25 to 100,+ (activity was measured to be greater than 5.0 μM),< 25,+ (activity was measured to be greater than 5.0 μM),25 to 100,+++ (activity was measured to be less than 1.0 μM)
COc1c(F)cc(F)cc1C1CCN([C@H]2C[C@H]3CC[C@H]2C3)CC1 [Compound 165],< 25,+ (activity was measured to be greater than 5.0 μM),25 to 100,+ (activity was measured to be greater than 5.0 μM),< 25,+ (activity was measured to be greater than 5.0 μM),25 to 100,++ (activity was measured to be from 1.0 μM to 5.0 μM)
COc1ccc(F)cc1C1CCN(C[C@@H]2C[C@H]3C=C[C@H]2C3)CC1 [Compound 167],< 25,+ (activity was measured to be greater than 5.0 μM),25 to 100,++ (activity was measured to be from 1.0 μM to 5.0 μM),< 25,+ (activity was measured to be greater than 5.0 μM),25 to 100,+++ (activity was measured to be less than 1.0 μM)

# — US7880007B2, “Bicyclic substituted phenyl piperidine modulators of muscarinic receptors” (Vertex Pharmaceuticals Incorporated, priority 2004, dated 2011)
